This is an account of results in patent US12251373B2, “Compounds and methods of treating retinal degeneration” (CASE WESTERN RESERVE UNIVERSITY, priority 2017, dated 2025).

One data set concerns the target T1, ovine COX-1 (Ovis aries, UniProt P05979).
T1 construct: purchased Abcam
T1 sequence (P05979 25-600): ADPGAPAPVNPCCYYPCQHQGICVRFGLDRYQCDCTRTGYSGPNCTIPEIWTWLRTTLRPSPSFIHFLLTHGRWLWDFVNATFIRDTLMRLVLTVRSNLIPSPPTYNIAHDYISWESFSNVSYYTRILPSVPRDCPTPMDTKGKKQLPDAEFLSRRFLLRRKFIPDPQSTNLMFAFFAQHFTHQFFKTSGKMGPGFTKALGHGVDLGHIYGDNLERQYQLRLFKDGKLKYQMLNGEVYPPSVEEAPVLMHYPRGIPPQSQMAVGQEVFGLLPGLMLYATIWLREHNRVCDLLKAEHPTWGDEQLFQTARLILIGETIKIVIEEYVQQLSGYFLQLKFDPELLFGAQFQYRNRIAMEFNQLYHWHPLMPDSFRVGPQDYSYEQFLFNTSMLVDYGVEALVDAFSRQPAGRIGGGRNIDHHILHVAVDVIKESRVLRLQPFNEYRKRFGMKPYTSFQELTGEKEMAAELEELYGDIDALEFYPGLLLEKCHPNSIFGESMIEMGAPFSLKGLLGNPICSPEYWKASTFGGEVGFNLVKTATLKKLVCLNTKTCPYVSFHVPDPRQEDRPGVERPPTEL
Nature of the data set: COX-1 activity assay. Type of data set: biochemical. As to conditions: up to 80 μM of YC-001. On the procedure:
The effect of the compound YC-001 on cyclooxygenase 1 (COX-1) activity was evaluated using the COX1 Inhibitor Screening Kit (Abcam, Cambridge, MA, USA) according to the manufacture's protocol. Briefly, the assay is based on the fluorometric detection of Prostaglandin G2, the intermediate product generated by the COX-1 enzyme. COX reaction mix included ovine COX-1, COX probe and COX cofactor and was prepared in a 96-well plate. YC-001 working solutions were dissolved in DMSO, and then mixed with COX Reaction Mix to the final concentrations (80, 40, 20, 10, 5, 2.5, 1.25, 0.625, 0.312, 0.156, 0.078 and 0.039 μM). Equivalent volume of DMSO was used as vehicle control and SC560 was used as a positive control. All controls and samples were measured in triplicate. Then Arachidonic Acid was added into each well to initiate all the reactions at the same time. The fluorescence was measured at Ex/Em=535/587 nm in a kinetic mode for 15 min at 25° C. Five time points were chosen in the linear range of the plot and the corresponding values for the fluorescence were used to calculate the slope of the linear regression equation. Relative COX-1 activity was calculated as Equation 5: […]

The test system of data set [1] is S. typhimurium TA1535, TA97a, TA98, TA100 and E. coli WP2. The data set is described as follows: Micro Ames test. The following applies: five bacteria strains, with or without S9. On the procedure: To determine the potential genotoxicity of YC-001, a Micro Ames test was performed by the Charles River Laboratories, Inc. The S9 microsomal fraction was obtained from Moltox Molecular Toxicology, Inc. (Boone, NC, USA). A premixture was prepared including 25 μL of S9 mix (10% v/v S9 fraction in 8 mM MgCl2, 33 mM KCl, 100 mM sodium phosphate buffer, pH 7.4, +S9) or phosphate buffer (0.2 M sodium phosphate, pH 7.4, 0S9), 5 μL of bacterial culture (>1000×10^6 bacteria mL^−1) and 100 μL of molten top agar supplemented with 0.05 mM biotin and minimal histidine (0.05 mM) and minimal tryptophan (0.05 mM). The 24-well plates were prepared by adding 1.3 mL of minimal bottom agar (1.3% agar, Vogel-Bonner medium E and 0.25% glucose) to each well. A 10 μL aliquot of YC-001 working solution/negative/positive control was added to each well followed by addition of 130 μL of the premixture. The plates kept on a leveled surface for 1 h while the top agar solidified, then were incubated at 37° C. for 72 h. After this period, plates were stored at 4° C. before revertant colony counts were manually recorded using an inverted microscope. […]
Background: In the Ames test, an excess of revertant colonies over the control signals mutagenicity.

As for `O=C1OCC(c2ccc(Cl)s2)=C1c1cccs1` [YC-001], the COX-1 enzymatic activity entry at ovine COX-1 was “didn't see changes”. Besides, the “Ames bacterial mutation test result” value in data set [1] was “negative”.
